Assay results: US20100056391A1, “INTEGRATED SCREENING ASSAYS AND METHODS OF USE” (Trustees of Princeton University, priority 2006, published 2010)

System: Dictyostelium cells
Assay: Development of Dictyostelium cells in the presence of AFC (time-lapse imaging, FIG. 7)
Format: cell-based
Description: Accordingly, some embodiments of the present invention are directed to assays testing the effects of AFC on Dictyostelium cells.

CC(=O)N[C@@H](CSC/C=C(\C)CC/C=C(\C)CCC=C(C)C)C(=O)O [AFC, N-acetyl-farnsyl cysteine]
ability of the cells to form fruiting bodies (Dictyostelium cells treated with AFC): inhibited | mechanism by which individual cells aggregate into multicellular clusters (head-to-tail streaming while migrating) (compared with untreated cells, which line up head-to-tail and form streams, FIG. 7, 6.5, 8.5 and 9.25 hours): migrate, but do not line up head-to-tail
